Assay results published in article PMC10777911, “A Potent PDK4 Inhibitor for Treatment of Heart Failure with Reduced Ejection Fraction” (Cells, 2023).
pIC50: −log10 of the molar value. In brackets after ≈: the same amount, converted by molar mass.

Tests used:
[1] = system: human fibroblast cells; assay: Cytotoxicity assay against human fibroblast cells (growth inhibition); assay type: cell-based; settings: human fibroblasts, read-out: Toxicity (IC50), half-maximal inhibitory concentration to inhibit fibroblast growth
Description: Wild-type fibroblasts obtained from a volunteer expressing [F352F + V368V] (FV–FV alleles), purchased from RIKEN Cell Bank (Tsukuba, Japan), were used, and the cytotoxicity assay was carried out as described in the previous paper.
(§1) With five synthesized Vitamin K3 derivatives, their in vitro PDK4 inhibitory activity and cytotoxicity were evaluated. In vitro activities were tested using fluorescently labeled PDH by measuring phosphorylated and unphosphorylated PDH of the derivatives using a CCD camera. For cytotoxicity, IC50 values were calculated by adding the derivatives to the human fibroblast culture medium and monitoring growth inhibition. Then, we evaluated the efficacy of novel PDK4 inhibitor candidates in the treatment of heart failure. The transverse aorta of wild-type mice was constricted to induce a pressure overload in the left ventricle, and the ejection fraction (EF) was postoperatively measured at 4 weeks. Subsequently, 2.8 mg/kg of each derivative was intraperitoneally administered to mice once daily for 1 week to evaluate improvement in EF values.

[2] = biological target: T1, Full-length human PDK4 (GST-fusion) (Homo sapiens, UniProt Q16654); assay: Off-chip mobility shift assay (MSA) for PDK4 inhibition; assay type: biochemical; settings: at 10 µg/mL of each inhibitor; for inhibition at 10 µg/mL: read-out: PDK4 Inhibitory Activity (%)
T1 construct: GST (Glutathione S-transferase) (N); made in house; host or cells: E. coli
T1 sequence (Q16654 whole entry, the tested form may be a part): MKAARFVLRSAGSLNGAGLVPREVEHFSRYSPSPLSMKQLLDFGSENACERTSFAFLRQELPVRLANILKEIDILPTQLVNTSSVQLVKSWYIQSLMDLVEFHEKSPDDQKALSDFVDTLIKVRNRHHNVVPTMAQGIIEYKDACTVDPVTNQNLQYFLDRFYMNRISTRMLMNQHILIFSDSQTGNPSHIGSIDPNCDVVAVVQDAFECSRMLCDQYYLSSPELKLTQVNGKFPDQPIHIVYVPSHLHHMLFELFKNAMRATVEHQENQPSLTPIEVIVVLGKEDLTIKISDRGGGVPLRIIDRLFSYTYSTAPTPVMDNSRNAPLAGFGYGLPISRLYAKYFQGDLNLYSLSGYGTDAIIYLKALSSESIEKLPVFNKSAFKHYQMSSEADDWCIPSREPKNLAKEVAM
Description: Full-length human PDK4 [amino acids 1-411 of accession number NP_002603.1] was expressed as an N-terminal Glutathione S-transferase (GST)-fusion protein (73 kDa) using an E. coli expression system. GST-PDK4 was purified using glutathione affinity chromatography.
Derivatives were dissolved in dimethyl sulfoxide (DMSO) and further diluted in DMSO to prepare a solution with a 100-fold higher concentration than the test sample solution. This solution was further diluted 25-fold in assay buffer (20 mM 4-(2-hydroxyethyl)-1-piperazineethanesulfonic acid (HEPES), 0.01% Triton X-100, 2 mM dithiothreitol (DTT), pH 7.5) to make a test sample solution. The positive control substance solution was prepared the same way.
(1) 5µL of test sample solution, 5 µL of substrate/ATP/metal solution in assay buffer (20 mM HEPES, 0.01% Triton X-100, 2 mM DTT, pH 7.5), and 10 µL of kinase solution in assay buffer prepared in assay buffer were mixed in the wells of a 384-well polypropylene plate and allowed to react for 5 h at room temperature. (2) The reaction was stopped by adding 70 µL of Termination Buffer (QuickScout Screening Assist MSA; Carna Biosciences). (3) Substrate peptides and phosphorylated peptides in the reaction solution were separated and quantified using the LabChip system (Perkin Elmer, Shelton, CT, USA). (4) The product ratio (P/(P+S)) was calculated from the substrate peptide peak height (S) and the phosphorylated peptide peak height (P) of the kinase reaction.
The average signal in control wells containing all reaction components was considered to be 0% inhibition. The average signal in background wells (without enzyme) was considered as 100% inhibition, and the % inhibition was calculated from the average signal in each test sample well.

[3] = system: TAC mice (heart failure with reduced EF); assay: Transverse aortic constriction (TAC) heart failure model, echocardiography; assay type: in vivo, mouse (C57BL/6J); settings: 2.8 mg/kg i.p. once daily for 1 week, compared to DCA
Description: C57BL/6J mice were purchased from Japan SLC, Inc. (Hamamatsu, Japan) and Takasugi Experimental Animals Supply Co., Ltd. (Kasukabe, Japan), and were kept under a 12 h light–dark schedule. All animal handling procedures in this study complied with the Jichi Medical University Guide for Laboratory Animals and the ARRIVE guidelines. The Institutional Animal Care and Concern Committee at Jichi Medical University approved all experimental protocols. This study used 8-week-old male mice.
Mice were intubated prior to surgery and were maintained under assisted ventilation on a heating pad throughout the procedure. Under a microscope, a midline incision was made on the skin from the neckline to the mid-chest level. A partial thoracotomy was made through the second rib, and the sternum was retracted to aid visualization of the aorta. After periaortic tissue was removed, a 27-G blunt needle was placed in parallel along the transverse aorta, and the suture was tied over the needle between the innominate artery and the left common carotid. Then, the rib cage was closed, followed by closure of the skin. […] Mice were kept in a heating unit until they recovered completely from anesthesia.
At weeks 0, 4, and 5 after TAC induction, mice were anesthetized with 1.5% isoflurane and secured on an animal handling and physiological monitoring system in the supine position. Images were captured with a 30 MHz probe attached to a Vevo 2100 (VisualSonics, Toronto, ON, Canada). Heart rate was maintained at 400 to 500 bpm, and the temperature of the system was kept at 37 °C while echocardiographic images were captured. The ejection fraction was calculated using the Vevo2100 system based on the Teichholz method.
Four weeks after the TAC surgery, mice with an EF less than 55 were subjected to injection. Then, 2.8 mg/kg of compound 8 or DCA in 5% DMSO in saline or 5% DMSO in saline was injected peritoneally every day for 7 days.
as §1

[4] = system: PDK4; design: method as in PMID 24865588; settings: previous study; read-out: IC50 of PDK4 inhibition; cited from earlier work

SMILES | IC50 [1] | inhibition at 10 µg/mL [2] | Change in EF (EF5/EF4) after a week of daily injection [3] | melting point | pIC50 [4] | PDK4 Inhibitory Activity (%) [2]
COC(=O)c1ccc2c(c1)C(=O)C(C)=CC2=O [Compound 5] | 8 µg/mL (≈ 34.7 µM) | 34.6% | improve |  |  | 
CC1=CC(=O)c2cc(C(=O)N[C@@H](CO)C(=O)O)ccc2C1=O [Compound 13b] | > 99 µg/mL | 63.2% | improve | 166.6 to 166.8 °C |  | 
CC1=CC(=O)c2cc(C(=O)NCC(=O)O)ccc2C1=O [Compound 13a] | > 110 µg/mL | 66.8% | improve | 163 to 163.2 °C |  | 
O=C(O)C(Cl)Cl [DCA, dichloroacetic acid] |  |  |  |  | 4.24 | 
CC1=CC(=O)c2ccccc2C1=O [Vitamin K3, reference compound] | 18 µg/mL (≈ 105 µM) | 66% |  |  |  | 65.9%
COC(=O)c1ccc2c(c1)C(=O)C=C(C)C2=O [Compound 11] | 7 µg/mL (≈ 30.4 µM) | 65.4% | improve |  |  | 
